According to patent US12649745B2, “Amino-pyrimidine cyclo-amides” (Hoffmann-La Roche Inc., priority 2020, dated 2026):

target: T1, human Autotaxin (ATX) (Homo sapiens, UniProt Q13822); assay: Human ATX enzyme inhibition assay (LPC substrate, choline oxidase/HRP/Amplex Red coupled format); assay type: biochemical; settings: recombinant hATX 1 nM, 18:1 LPC 30 μM, fluorescence at 90 mins minus 5 mins
T1 construct: generate a full length human ENPP2 ORF with or without a 3′-6×His tag; 6xHis (C); made in house; host or cells: FreeStyle 293-F cells (transient transfection), purified from culture supernatant
Description: Human ATX Enzyme Inhibition Assay
To identify inhibitors of the human Autotaxin (ATX) enzyme an in-vitro biochemical profiling assay has been developed using lysophosphatidylcholine (LPC) as substrate and recombinant enzyme. ATX activity is assayed via a coupled enzyme format where choline produced from LPC hydrolysis is converted to hydrogen peroxide by choline oxidase (CO). Hydrogen peroxide is in turn used as a co-substrate by horseradish peroxidase (HRP) to oxidise Amplex Red® and generate the red-fluorescent product, Resorufin.
50 mM Tris-HCl (pH 8.0); 120 mM NaCl; 20 mM CaCl2; 5 mM KCl; 1 mM MgCl2; 0.01% Triton X-100, sterile-filtered and stored at 4° C.
50 mM Tris-HCl (pH 8.0); 150 mM NaCl
human Autotaxin (hATX): 0.97 mg/ml (9.718 μM) Molecular weight 99817. Working solution of 1.5 μM used in this assay.
100 mM 18:1 LPC dissolved in reagent dilution-buffer.
500 U/ml Choline Oxidase in reagent dilution buffer.
2540 U/ml Horseradish Peroxidase, in reagent dilution buffer (10.95 mg/ml).
20 mM Amplex Red (10-Acetyl-3,7-dihydroxy-phenoxazin) in DMSO.
Black, 384-well plate, black with clear bottom, non-treated surface.
Test compounds are received pre-diluted in DMSO as an 11-point concentration-response (0.5 mM highest concentration; 1 in 3.162 dilution). Test compounds are pre-diluted 1:1 (10 μL compound+10 μL assay buffer) in a 96-well conical bottomed plate prior to use.
ATX is diluted to 2.2 nM in assay buffer. Choline oxidase and horseradish peroxidase are diluted to 7.3 U/ml and 14.7 U/ml, respectively. 18:1 LPC and Amplex Red® are diluted to 110 μM and 183.3 μM, respectively (solution protected from light). 2.2 μL of compound pre-dilution or 50% DMSO is added to the reaction plate followed by 25 μL of ATX or assay buffer (negative control). Assay plate is mixed and incubated at room temperature for 10 mins. 15 μL of choline oxidase/horseradish peroxidase is then added. To initiate the reaction 15 μL of LPC 18:1/Amplex Red is added. Assay plate is mixed and incubated at room temperature in the dark. Fluorescence is measured at 5 mins (for background subtraction) and 90 mins.
Final Assay Concentrations:
Horse Radish Peroxidase: 4 U/ml
Fluorescence at 5-minutes is subtracted from the 90-minute end point data and normalized with respect to the positive control. IC50 values are calculated.
Results in the enzymatic ATX inhibition assay are provided for compounds of formula (I).

| IC50 [nM] | Compound |
| --- | --- |
| 3 | CN1Cc2nc(N[C@H]3Cc4cc(Cl)cc(C#N)c4C3)ncc2C1=O [Example 23, (S)-6-chloro-2-((6-methyl-5-oxo-6,7-dihydro-5H-pyrrolo[3,4-d]pyrimidin-2-yl)amino)-2,3-dihydro-1H-indene-4-carbonitrile] |
| 9 | N#Cc1cc(Cl)cc2c1C[C@@H](Nc1ncc3c(n1)CN(CC1(O)CC1)C3=O)C2 [Example 24, (S)-6-chloro-2-((6-((1-hydroxycyclopropyl)methyl)-5-oxo-6,7-dihydro-5H-pyrrolo[3,4-d]pyrimidin-2-yl)amino)-2,3-dihydro-1H-indene-4-carbonitrile] |
| 6 | CC(=O)N1CCC(N2Cc3nc(N[C@H]4Cc5cc(Cl)cc(C#N)c5C4)ncc3C2=O)CC1 [Example 25, (S)-2-((6-(1-acetylpiperidin-4-yl)-5-oxo-6,7-dihydro-5H-pyrrolo[3,4-d]pyrimidin-2-yl)amino)-6-chloro-2,3-dihydro-1H-indene-4-carbonitrile] |
| 4 | N#Cc1cc(Cl)cc2c1C[C@@H](Nc1ncc3c(n1)CN(C(CF)CF)C3=O)C2 [Example 26, (S)-6-chloro-2-((6-(1,3-difluoropropan-2-yl)-5-oxo-6,7-dihydro-5H-pyrrolo[3,4-d]pyrimidin-2-yl)amino)-2,3-dihydro-1H-indene-4-carbonitrile] |
| 3 | N#Cc1cc(Cl)cc2c1C[C@@H](Nc1ncc3c(n1)CCNC3=O)C2 [Example 27, (S)-6-chloro-2-((5-oxo-5,6,7,8-tetrahydropyrido[4,3-d]pyrimidin-2-yl)amino)-2,3-dihydro-1H-indene-4-carbonitrile] |
| 6 | CC1(CN2Cc3nc(N[C@H]4Cc5cc(Cl)cc(C#N)c5C4)ncc3C2=O)COC1 [Example 28, (S)-6-chloro-2-((6-((3-methyloxetan-3-yl)methyl)-5-oxo-6,7-dihydro-5H-pyrrolo[3,4-d]pyrimidin-2-yl)amino)-2,3-dihydro-1H-indene-4-carbonitrile] |
| 4 | N#Cc1cc(Cl)cc2c1C[C@@H](Nc1ncc3c(n1)CCN(C1CCOCC1)C3=O)C2 [Example 29, (S)-6-chloro-2-((5-oxo-6-(tetrahydro-2H-pyran-4-yl)-5,6,7,8-tetrahydropyrido[4,3-d]pyrimidin-2-yl)amino)-2,3-dihydro-1H-indene-4-carbonitrile] |
| 2 | CC(C)N1CCc2nc(N[C@H]3Cc4cc(Cl)cc(C#N)c4C3)ncc2C1=O [Example 30, (S)-6-chloro-2-((6-isopropyl-5-oxo-5,6,7,8-tetrahydropyrido[4,3-d]pyrimidin-2-yl)amino)-2,3-dihydro-1H-indene-4-carbonitrile] |
| 2 | N#Cc1cc(Cl)cc2c1C[C@@H](Nc1ncc3c(n1)CCN(CC1CC1)C3=O)C2 [Example 31, (S)-6-chloro-2-((6-(cyclopropylmethyl)-5-oxo-5,6,7,8-tetrahydropyrido[4,3-d]pyrimidin-2-yl)amino)-2,3-dihydro-1H-indene-4-carbonitrile] |
| 2 | CCN1Cc2nc(N[C@H]3Cc4cc(Cl)cc(C#N)c4C3)ncc2C1=O [Example 33, (S)-6-chloro-2-((6-ethyl-5-oxo-6,7-dihydro-5H-pyrrolo[3,4-d]pyrimidin-2-yl)amino)-2,3-dihydro-1H-indene-4-carbonitrile] |
| 3 | CCN1CCc2nc(N[C@H]3Cc4cc(Cl)cc(C#N)c4C3)ncc2C1=O [Example 34, (S)-6-chloro-2-((6-ethyl-5-oxo-5,6,7,8-tetrahydropyrido[4,3-d]pyrimidin-2-yl)amino)-2,3-dihydro-1H-indene-4-carbonitrile] |
| 2 | N#Cc1cc(Cl)cc2c1C[C@@H](Nc1ncc3c(n1)CNC3=O)C2 [Example 35, (S)-6-chloro-2-((5-oxo-6,7-dihydro-5H-pyrrolo[3,4-d]pyrimidin-2-yl)amino)-2,3-dihydro-1H-indene-4-carbonitrile] |
| 3 | N#Cc1cc(Cl)cc2c1C[C@@H](Nc1ncc3c(n1)CCN(CC(F)(F)F)C3=O)C2 [Example 36, (S)-6-chloro-2-((5-oxo-6-(2,2,2-trifluoroethyl)-5,6,7,8-tetrahydropyrido[4,3-d]pyrimidin-2-yl)amino)-2,3-dihydro-1H-indene-4-carbonitrile] |
